In publication PMC3507948, “Origin and Evolution of Retinoid Isomerization Machinery in Vertebrate Visual Cycle: Hint from Jawless Vertebrates” (PLoS ONE, 2012):

How the values were obtained:
Type in all cases: cell-based
Lamprey RPE65 = target: T1, Lamprey RPE65 (Petromyzon marinus, UniProt L0ATZ0); assay: HEK293-F minimal visual cycle assay, normal-phase HPLC of saponified retinoids; details: co-expressed lamprey LRATb or bovine LRAT and bovine CRALBP; 2.5 µM all-trans retinol fed for 5 h; direct substrate is the retinyl ester formed in the cells
T1 construct: pVITRO2 with bovine CRALBP, expressed in HEK293-F cells with LRAT
T1 sequence (L0ATZ0 1-537): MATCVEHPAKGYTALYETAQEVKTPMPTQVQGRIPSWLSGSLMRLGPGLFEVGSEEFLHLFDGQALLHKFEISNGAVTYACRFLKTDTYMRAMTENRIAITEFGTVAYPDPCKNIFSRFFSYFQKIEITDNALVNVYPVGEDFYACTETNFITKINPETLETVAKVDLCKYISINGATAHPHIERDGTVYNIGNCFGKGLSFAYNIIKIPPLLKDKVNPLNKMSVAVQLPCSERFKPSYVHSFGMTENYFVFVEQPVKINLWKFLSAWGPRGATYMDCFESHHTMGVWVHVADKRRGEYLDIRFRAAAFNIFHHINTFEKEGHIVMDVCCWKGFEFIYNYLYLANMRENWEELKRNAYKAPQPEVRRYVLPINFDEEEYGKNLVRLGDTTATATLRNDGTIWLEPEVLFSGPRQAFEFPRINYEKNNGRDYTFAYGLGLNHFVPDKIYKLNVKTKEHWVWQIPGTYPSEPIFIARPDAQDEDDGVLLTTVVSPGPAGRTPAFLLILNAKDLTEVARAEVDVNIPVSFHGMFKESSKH

Lamprey LRATb = target: T2, Lamprey LRATb (Petromyzon marinus, UniProt A0AAJ7TIF3); assay: retinol esterification in HEK293-F cells, HPLC, retinyl esters as % of total retinoids; details: with 50 µM A922500 to block endogenous DGAT1; all-trans retinol added to cells
T2 construct: gene LOC116947134; full-length ORF cloned from adult female lamprey RPE (852 bp PCR product), 7-glycine tract at aa 160-166; pVITRO3, expressed in HEK293-F cells
T2 sequence (A0AAJ7TIF3 1-274): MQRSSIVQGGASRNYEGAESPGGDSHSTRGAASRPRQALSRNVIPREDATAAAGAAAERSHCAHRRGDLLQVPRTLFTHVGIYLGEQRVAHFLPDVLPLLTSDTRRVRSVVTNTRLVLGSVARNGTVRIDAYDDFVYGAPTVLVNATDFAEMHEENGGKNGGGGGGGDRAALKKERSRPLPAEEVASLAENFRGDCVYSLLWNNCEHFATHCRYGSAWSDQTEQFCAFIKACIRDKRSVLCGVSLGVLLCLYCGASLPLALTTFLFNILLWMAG

Ciona BCMOa (Ci-RPE65) [1] = target: T3, Ciona BCMOa (Ci-RPE65) (Ciona intestinalis, UniProt Q2PE71); assay: lycopene loss in lycopene-accumulating E. coli, reverse-phase HPLC; details: arabinose induction, 18 h; no retinal detected; data not shown
T3 construct: ORF from synthetic pUC57/ciBCMOa (Genscript), cloned in pBadTOPO, expressed in carotenoid-accumulating E. coli
T3 sequence (Q2PE71 1-553): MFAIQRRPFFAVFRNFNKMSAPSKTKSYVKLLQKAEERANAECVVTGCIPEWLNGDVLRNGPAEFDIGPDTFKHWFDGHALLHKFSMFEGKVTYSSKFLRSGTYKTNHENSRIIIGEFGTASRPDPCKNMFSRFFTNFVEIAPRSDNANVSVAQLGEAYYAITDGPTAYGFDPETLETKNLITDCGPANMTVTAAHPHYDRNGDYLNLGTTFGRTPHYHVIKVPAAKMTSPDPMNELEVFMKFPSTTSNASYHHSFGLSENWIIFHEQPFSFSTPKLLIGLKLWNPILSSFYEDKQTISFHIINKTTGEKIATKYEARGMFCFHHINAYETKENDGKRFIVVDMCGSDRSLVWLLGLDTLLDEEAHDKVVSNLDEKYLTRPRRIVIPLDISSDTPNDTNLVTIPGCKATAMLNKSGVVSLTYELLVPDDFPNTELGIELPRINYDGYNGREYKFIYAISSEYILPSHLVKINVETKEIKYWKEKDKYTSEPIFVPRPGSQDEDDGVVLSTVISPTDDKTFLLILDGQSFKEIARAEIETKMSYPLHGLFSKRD

[2] = target: T4, Ciona BCMOb (Ci-BCMO1; ci-BCO) (Ciona intestinalis, UniProt Q2PE72); assay: as above; details: arabinose induction; no retinal detected; printed as β-carotene or lycopene
T4 construct: expressed in carotenoid-accumulating E. coli
T4 sequence (Q2PE72 1-524): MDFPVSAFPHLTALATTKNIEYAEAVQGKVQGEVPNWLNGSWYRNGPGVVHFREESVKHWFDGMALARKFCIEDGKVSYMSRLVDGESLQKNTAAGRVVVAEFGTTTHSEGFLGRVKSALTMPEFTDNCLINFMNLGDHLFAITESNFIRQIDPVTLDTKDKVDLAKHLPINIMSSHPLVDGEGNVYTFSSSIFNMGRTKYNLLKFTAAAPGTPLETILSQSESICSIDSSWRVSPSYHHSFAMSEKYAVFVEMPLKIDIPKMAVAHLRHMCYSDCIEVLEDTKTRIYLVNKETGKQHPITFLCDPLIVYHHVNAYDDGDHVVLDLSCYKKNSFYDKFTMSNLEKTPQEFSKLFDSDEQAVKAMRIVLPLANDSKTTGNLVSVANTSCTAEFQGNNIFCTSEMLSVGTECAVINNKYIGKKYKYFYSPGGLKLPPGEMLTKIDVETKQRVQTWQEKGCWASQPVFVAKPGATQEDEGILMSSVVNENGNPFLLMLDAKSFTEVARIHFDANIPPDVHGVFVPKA

Ciona BCMOa (Ci-RPE65) [3] = target: T3, Ciona BCMOa (Ci-RPE65); assay: β-carotene loss in β-carotene-accumulating E. coli, reverse-phase HPLC; details: arabinose induction, 18 h; no retinal detected
[4] = target: T4, Ciona BCMOb (Ci-BCMO1; ci-BCO); assay: as above; details: arabinose induction; no retinal detected

In the case of `CC1=C(/C=C/C(C)=C/C=C\C(C)=C\CO)C(C)(C)CCC1` [11-cis retinol], the “HEK293-F minimal visual cycle assay, normal-phase HPLC of saponified retinoids” value (Lamprey RPE65) is reported as “Cells transfected with lamprey RPE65 and lamprey LRATb were also able to produce 11-cis retinol”.

In the case of `CC1=C(/C=C/C(C)=C/C=C/C(C)=C/CO)C(C)(C)CCC1` [all-trans retinol], the “retinol esterification in HEK293-F cells, HPLC, retinyl esters as % of total ret” value (Lamprey LRATb) is reported as “Catalytic activity of Lamprey LRATb in HEK293F cells in the presence of specific DGAT1 inhibitor”.

In the case of `CC(C)=CCC/C(C)=C/C=C/C(C)=C/C=C/C(C)=C/C=C/C=C(C)/C=C/C=C(C)/C=C/C=C(\C)CCC=C(C)C` [lycopene], the “lycopene loss in lycopene-accumulating E. coli, reverse-phase HPLC” value (Ciona BCMOa (Ci-RPE65) [1]) is reported as “the amount of lycopene (data not shown) or β-carotene in induced cells decreased significantly” and the “lycopene loss in lycopene-accumulating E. coli, reverse-phase HPLC” value [2] is reported as “Quantification of β-carotene or lycopene in induced cell culture transformed with Ciona BCMOb (ci-BCO)”.

For `CC1=C(/C=C/C(C)=C/C=C/C(C)=C/C=C/C=C(C)/C=C/C=C(C)/C=C/C2=C(C)CCCC2(C)C)C(C)(C)CCC1` [β-carotene], the “β-carotene loss in β-carotene-accumulating E. coli, reverse-phase HPLC” value (Ciona BCMOa (Ci-RPE65) [3]) was “the amount of lycopene (data not shown) or β-carotene in induced cells decreased significantly” and the “β-carotene loss in β-carotene-accumulating E. coli, reverse-phase HPLC” value [4] was “Ciona BCMOb (ci-BCO) also demonstrated significant carotenoid cleavage activity”.
